The values that follow come from patent US8039439B2, “Cellular cycle anomalies for targeting oncology and neurodegeneration” (priority 2005, dated 2011).

In one experiment the test system is PKC∈. Kind of experiment: PKC∈ expression in MCF-7 cells (Western blotting, immunofluorescence). The format is cell-based, human. The conditions noted are these: TPA 25 nM. On the procedure: Western blotting study: Given that the protein sequence of LIV21 has putative PKC phosphorylation sites, including two specific for PKC∈, the inventor tested the variation in the expression of this PKC as a function of the duration of TPA treatment. […] The expression of PKCzeta (PKCζ) is used as an internal control since it is not sensitive to TPA.
The protein extracts are heated at 80° C. for 5 minutes in a Laemmli buffer (pH 7.4, 0.06 M Tris, 3% SDS, 10% glycerol, 1 nM PMSF, β-mercaptoethanol). The migration is carried out by SDS-PAGE (sodium dodecyl sulfate-polyacrylamide gel electrophoresis). 10 to 20 μg of proteins migrate in a 12% polyacrylamide gel for 1 h under denaturing conditions (migration buffer: 25 mM Tris base, 192 mM glycine, 1% SDS, pH 8.3). The proteins are then transferred onto a nitrocellulose membrane (Schleicher & Schuell) for one hour by liquid transfer, in a transfer membrane (25 mM Tris, 192 mM glycine, 20% methanol, pH 8.3). The membranes, saturated in PBS-0.1% Tween-0.1% Triton X100-5% skimmed milk for one hour, are brought into contact with the primary antibody diluted in PBS-0.1% Tween-0.1% Triton X100-1% milk at ambient temperature with gentle agitation for one hour to two hours. After washing, the peroxidase-coupled secondary antibody is incubated with the membranes for 1 h. […]
Background: Immunoblotting shows a protein as a band on a membrane.

Experiment [1] has as its system MCF-7 cells. Description: Cell growth monitoring (counting) and morphology of MCF-7 cultures with or without TPA. The format is cell-based, human. The conditions noted are these: TPA 25 nM. The protocol: It has been described in the literature that TPA induces the arrest of proliferation and the differentiation of tumor cells of the MCF-7 line. In order to validate the culture conditions, the cell growth was monitored (by counting) beforehand over three days of culture in the presence or absence of TPA at a concentration of 25 nM (FIG. 14).
However, in the period of time over which the cells were studied, the secretory phenotype (appearance of granules and of secretory canaliculi) was not observed.

The next experiment deals with MCF-7 line. The conditions noted are these: literature description; cited from earlier work.
For experiment [2], the system named is MCF-7 cells. Kind of experiment: FACS analysis of cell cycle phases in TPA-treated MCF-7 cells. The format is cell-based, human. The protocol:
However, without any further addition of TPA, the number of cells in the S phase increases again so as to return to the initial state at 72 h of treatment. G2/M phase: The number of cells in the G2/M phase increases from the beginning of the treatment, with a maximum observed at 12 hours (FIG. 15B). G0/G1 phase: The number of cells in the G0/G1 phase is at a minimum at 6 hours and at a maximum at 24 hours (FIG. 15C).
A maximum of cells in the S phase are therefore observed in the early periods of the kinetics (0 h to 6 h), a maximum of cells in the G2/M phase is observed at 12 h and, finally, a maximum of cells in the G0/G1 phase is observed at 24 h. Finally, without any further addition of TPA, the cells return to the S phase at 72 h.
For orientation: A flow cytometer gives signals particle by particle.

A further experiment concerns LIV21. Kind of experiment: Nuclear translocation of LIV21 in MCF-7 cells (Western blotting of extracts/fractions, immunocytochemistry). The class given is cell-based, human. The protocol: The results obtained by flow cytometry led the inventor to study, in parallel, the expression of LIV21 in nuclear extracts prepared after 12 h, 24 h, 48 h and 72 h of TPA treatment (FIG. 16A). […] It lasts until the reinitiation of the cell cycle observed at 72 h.
However, it is interesting to note that the expression of LIV21 already begins from 1 h of treatment in certain cells, since they are not synchronous.
The effect of the selective inhibition of the activity of PKC∈ on the nuclear translocation of LIV21 was studied by immunocytochemistry. These experiments were carried out on nontreated cultures or cultures treated for 12 h with TPA at 25 nM or with the peptide at two different concentrations, 1 and 2 μM (FIG. 20).
The protein extracts are heated at 80° C. for 5 minutes in a Laemmli buffer (pH 7.4, 0.06 M Tris, 3% SDS, 10% glycerol, 1 nM PMSF, β-mercaptoethanol). The migration is carried out by SDS-PAGE (sodium dodecyl sulfate-polyacrylamide gel electrophoresis). 10 to 20 μg of proteins migrate in a 12% polyacrylamide gel for 1 h under denaturing conditions (migration buffer: 25 mM Tris base, 192 mM glycine, 1% SDS, pH 8.3). The proteins are then transferred onto a nitrocellulose membrane (Schleicher & Schuell) for one hour by liquid transfer, in a transfer membrane (25 mM Tris, 192 mM glycine, 20% methanol, pH 8.3). The membranes, saturated in PBS-0.1% Tween-0.1% Triton X100-5% skimmed milk for one hour, are brought into contact with the primary antibody diluted in PBS-0.1% Tween-0.1% Triton X100-1% milk at ambient temperature with gentle agitation for one hour to two hours. After washing, the peroxidase-coupled secondary antibody is incubated with the membranes for 1 h. Revelation is carried out by means of a chemiluminescence reaction using the ECL kit according to the supplier's protocol (Amersham).

As to `CCCCCCCCCCCCCC(=O)O[C@@H]1[C@@H](C)[C@@]2(O)[C@@H](C=C(CO)C[C@]3(O)C(=O)C(C)=C[C@@H]23)[C@H]2C(C)(C)[C@]12OC(C)=O` [TPA], the “PKC∈ localization (immunofluorescence)” value with PKC∈ (12 h) is recorded as “disappears from the cytoplasm”. Further, in the experiment on PKC∈ (as a function of duration of treatment), the “PKC∈ expression (Western blotting, total extracts)” value is reported as “decreases from 30 min”. Besides, the “cell morphology / differentiation” value in the experiment on MCF-7 cells [1] is given as “rapidly acquire characteristics of differentiated mammary gland cells”. The “number of cells in control cultures relative to treated cultures” value in the experiment on MCF-7 cells [1] (after 3 days of treatment) is “twice as many cells”. For the same compound, in the experiment on MCF-7 cells [1] (three days of culture), the “cell proliferation (cell counts)” value is listed as “clearly inhibits proliferation”. The “proliferation of cells of human mammary tumor lines such as MCF-7” value in the experiment on MCF-7 line is reported as “drastically inhibits the proliferation”. For the same compound, the “time of optimal reduction of the number of cells in the S phase” value with MCF-7 cells [2] (TPA 25 nM, single addition) is on record as 12 h. Moreover, in the experiment with MCF-7 cells [2] (TPA treatment), the “time of maximum number of cells in the G0/G1 phase” value was determined as 24 h, the “time of maximum number of cells in the G2/M phase” value was found to be 12 h and the “time of minimum number of cells in the G0/G1 phase” value stood at 6 h. For the same compound, the “time at which cells reinitiate the cell cycle” value with MCF-7 cells [2] (after single addition of TPA) was 72 h. For the same compound, in the experiment on LIV21 (24 h of TPA treatment (25 nM)), the “colocalization of PML and LIV21 (double labeling)” value is “colocalized in the nuclei”. In the experiment on LIV21 (TPA 25 nM), the “time of maximum nuclear translocation of LIV21 (immunocytochemistry)” value is 12 h. Further, in the experiment with LIV21 (TPA 25 nM, 12 h, 24 h, 48 h and 72 h), the “anti-LIV21 immunoreactivity in nuclear extracts (Western blot)” value is given as “maximum anti-LIV21 immunoreactivity was observed from 12 h, was maintained up to 48 h”.

Regarding “EAVSLKPT (listed as Homo sapiens) [PKC∈-inhibiting peptide]”, the “nuclear translocation of LIV21 (immunocytochemistry)” value was “absence of nuclear translocation of LIV21” in the experiment on LIV21 (peptide 1 μM, 12 h); “effect identical to that of TPA” in the experiment on LIV21 (peptide 2 μM, 12 h, compared with TPA 25 nM); “same effectiveness as” in the experiment with LIV21 (peptide 2 μM, 12 h, compared with TPA 25 nM, listed as PKCε-inhibiting peptide). In addition, in the experiment on LIV21 (peptide 2 μM, 12 h, compared with TPA-treated cultures), the “LIV21 expression profile in cytoplasmic and nuclear fractions (cell fractionation, Western blot)” value is listed as “same LIV21 expression profile”.
